Molecules are shown by their SMILES. In brackets after ≈: the same amount, converted by molar mass. Where two headings read alike, the source gives them in different places.

The test system of one assay is Proteus vulgarisi. As to the kind of experiment: MIC broth microdilution, Gram-negative clinical isolates. The format is cell-based. The method, then: (§1) Compound A was evaluated in vitro in accordance with defined CLSI documents specific to the organisms (aerobic, anaerobic or yeast) tested in this study. Ampicillin, ceftazidime, cefuroxime, ciprofloxacin, linezolid, and vancomycin were tested alongside as comparator agents for aerobic bacteria; clindamycin and metronidazole were tested as comparators for anaerobes; fluconazole was tested as a comparator for yeast isolates. Stock solutions of Compound A were prepared in dimethyl sulfoxide (DMSO). Ampicillin, ceftazidime, cefuroxime, ciprofloxacin, linezolid, vancomycin, metronidazole, clindamycin, and fluconazole were prepared each according to its manufacturer's guideline.
(§2) Minimum inhibitory concentrations (MICs) in μg/ml were determined according to CLSI guideline M7-A7 by broth microdilution. All aerobes were tested using Mueller-Hinton broth medium with the exception of Streptococcus spp., which were tested using cation-adjusted Mueller-Hinton broth supplemented with 2-5% lysed horse blood.
(In broth dilution the organism is exposed to a series of concentrations in liquid medium.)

Another assay has as its system Escherichia coli. Described as above. Type of assay: cell-based. The method, then:
as §1, §2

For a further assay, the system named is Klebsiella oxytoca. The assay is described as above. Type of assay: cell-based. As to the method:
as §1, §2

A further assay relates to Citrobacter freundi. The description is as above. The format is cell-based. The method, then:
as §1, §2

The next assay concerns Acinetobacter spp. Described as above. The format is cell-based. The conditions noted are these: 2-3 isolates/organism. As to the method:
as §1, §2

The subject of another assay is Proteus mirabilis. The assay is described as above. The format is cell-based. As to the method: as §1, §2
The test system of another assay is Morganella morganii. The description is as above. The format is cell-based. The method, then: as §1, §2
Another assay relates to Serratia marcescens. The description is as above. The format is cell-based. The method, then:
as §1, §2

Another assay deals with Klebsiella pneumoniae. The description is as above. The format is cell-based. As to the method: as §1, §2
A further assay has as its system Enterobacter cloacae. The assay is described as above. Type of assay: cell-based. As to the method:
as §1, §2

In the next assay the test system is Citrobacter koseri. The description is as above. The format is cell-based. The method, then:
as §1, §2

The test system of assay [1] is Stenotrophomonas maltophilia. The description is as above. Type of assay: cell-based. As to the method:
as §1, §2

For a further assay, the system named is Haemophilus influenzae. Described as above. Type of assay: cell-based. As to the method:
as §1, §2

In another assay the test system is Providencia stuartii. The assay is described as above. The format is cell-based. As to the method:
as §1, §2

A further assay concerns Pseudomonas aeruginosa. The assay is described as above. Conditions: 2-3 isolates/organism. The format is cell-based. The method, then:
as §1, §2

A further assay has as its system Strept. pneumoniae. As to the kind of experiment: MIC broth microdilution, Gram-positive clinical isolates. The format is cell-based. The conditions noted are these: Streptococcus pneumoniae. As to the method: as §1, §2
In the next assay the test system is Staph. aureus (MRSA). The description is as above. Type of assay: cell-based. Conditions: Staphylococcus aureus. As to the method:
as §1, §2

The test system of the next assay is Strept. agalactiae. The description is as above. Type of assay: cell-based. Conditions: Streptococcus agalactiae. As to the method: as §1, §2
In a further assay the test system is Strept. viridians. The description is as above. The format is cell-based. As to the method: as §1, §2
The next assay concerns Staph. spidermidis. The description is as above. The format is cell-based. The method, then: as §1, §2
A further assay concerns Entero. faecium (VRE). Described as above. Type of assay: cell-based. Conditions: Enterococcus faecium. The method, then:
as §1, §2

The next assay deals with Strept. pyogenes. Described as above. The conditions noted are these: Streptococcus pyogenes. The format is cell-based. As to the method:
as §1, §2

A further assay has as its system Staph. spp. (coagulase−). The assay is described as above. The format is cell-based. As to the method: as §1, §2
Another assay deals with Entero. faecalis. The description is as above. The format is cell-based. Conditions: Enterococcus faecalis. The method, then: as §1, §2
The test system of a further assay is Staph. saprophyticus. Described as above. Type of assay: cell-based. The conditions noted are these: Staphylococcus saprophyticus. As to the method: as §1, §2
The subject of a further assay is S. aureus. Description: MIC or MIC90 vs S. aureus (selectivity table). Type of assay: cell-based. The conditions noted are these: * marks MIC90.
The subject of another assay is MRSA ATCC 33591. As to the kind of experiment: Serial passage resistance, MRSA. Type of assay: cell-based, S. aureus. Conditions: serial passage at 0.5×MIC. The method, then: (§3) Frozen bacterial stocks (20 μL) of S. aureus ATCC29213 or methicillin-resistant S. aureus (MRSA ATCC 33591) were inoculated into 3 mL cation-adjusted Mueller-Hinton medium and incubated at 37° C. on a shaker platform (250 rpm) overnight. The suspension was diluted to approximately 5×10^5 cfu/mL and inoculated into a polypropylene (Costar) 96-well round bottom plate (90 μL volumes). Compound stock solutions of Compound A and norfloxacin (Sigma Aldrich, St. Louis, Mo.; Catalogue# N9890) were prepared in DMSO and serial two-fold dilutions of compound were made in 0.01% acetic acid, 0.2% bovine serum albumin directly in the wells of the polypropylene plate at 10 μL/well. Final concentrations of Compound A were 50, 25, 12.5, 6.25, 3.13, 1.56, 0.78, 0.39, 0.19, 0.098, 0.049, and 0.024 μg/mL. Final concentration ranges of norfloxacin were 100, 50, 25, 12.5, 6.25, 3.13, 1.56, 0.78, 0.39, 0.19, 0.098, and 0.049 μg/mL. […] All samples were performed in triplicate. Following a 24 hour incubation at 37° C., cell growth was assessed by observing the presence of “acceptable growth”, defined by CLSI as a ≧2 mm button or definite turbidity. The MIC wells were defined as the lowest concentration where acceptable growth was not observed. For serial passage, 50 μL aliquots were taken from 2 of 3 replicate wells at 0.5×MIC and combined into 900 μL of fresh cation-adjusted Mueller-Hinton medium. The OD600 was measured and the cell suspensions were inoculated into polypropylene 96-well round bottom plates (90 μL volumes) at approximately 5×10^5 cfu/mL. Ten μL of compound stock solutions were added previously to the wells to achieve the concentration ranges for each compound described above. All samples were performed in triplicate. The plates were incubated for 24 hours at 37° C. This process was repeated for a total of 17 passages and MIC values were recorded at each passage.

In the next assay the test system is MSSA ATCC 29213. Description: Serial passage resistance, MSSA. Type of assay: cell-based, S. aureus. Conditions: serial passage at 0.5×MIC. As to the method: as §3
The mark [2] stands for this setting: Proteus vulgarisi, 2-3 isolates/organism, read-out: MIC.
[3] abbreviates: 2-3 isolates/organism, read-out: MIC.
The mark [4] stands for this setting: Staph. spidermidis, 2-3 isolates/organism, read-out: MIC.

Regarding `CC(C)(O/N=C(\C(=O)N[C@@H]1C(=O)N2C(C(=O)[O-])=C(C[n+]3ccccc3)CS[C@H]12)c1csc(N)n1)C(=O)O` [Ceftazidime], the MIC with Proteus vulgarisi (setting [2]) was 0.12 µg/mL (≈ 0.22 µM); with Escherichia coli (setting [3]) it was 0.06 µg/mL (≈ 0.11 µM); with Klebsiella oxytoca (setting [3]), 0.06 to 0.12 µg/mL (≈ 0.11 to 0.22 µM); in the assay on Citrobacter freundi (Citrobacter freundi, 2-3 isolates/organism, read-out: MIC), 0.25 to 2 µg/mL (≈ 0.457 to 3.66 µM); in the assay with Acinetobacter spp. it was 2 to 64 µg/mL (≈ 3.66 to 117 µM); in the assay with Proteus mirabilis (setting [3]), 0.03 to 0.06 µg/mL (≈ 0.0549 to 0.11 µM). For the same compound, the MIC with Morganella morganii (setting [3]) is 2 to 16 µg/mL (≈ 3.66 to 29.3 µM); in the assay on Serratia marcescens (setting [3]), 0.12 to 0.25 µg/mL (≈ 0.22 to 0.457 µM); in the assay with Klebsiella pneumoniae (setting [3]) it was 0.06 to 0.12 µg/mL (≈ 0.11 to 0.22 µM); with Enterobacter cloacae (setting [3]) it was 0.25 µg/mL (≈ 0.457 µM); with Citrobacter koseri (setting [3]), 0.12 to 0.25 µg/mL (≈ 0.22 to 0.457 µM); in assay [1] (setting [3]), 4 to 8 µg/mL (≈ 7.32 to 14.6 µM). In addition, the MIC with Haemophilus influenzae (setting [3]) was 0.06 to 0.12 µg/mL (≈ 0.11 to 0.22 µM); in the assay on Providencia stuartii (setting [3]) it was 0.12 to 0.64 µg/mL (≈ 0.22 to 1.17 µM); with Pseudomonas aeruginosa, 1 to 8 µg/mL (≈ 1.83 to 14.6 µM); in the assay on Strept. pneumoniae (Strept. pneumoniae, 2-3 isolates/organism, read-out: MIC) it was 0.25 µg/mL (≈ 0.457 µM); in the assay on Staph. aureus (MRSA) (Staph. aureus (MRSA), 2-3 isolates/organism, read-out: MIC), 32 µg/mL (≈ 58.5 µM); with Strept. agalactiae (Strept. agalactiae, 2-3 isolates/organism, read-out: MIC), 0.5 µg/mL (≈ 0.915 µM). Moreover, the MIC is 0.5 to 4 µg/mL (≈ 0.915 to 7.32 µM) in the assay with Strept. viridians (Strept. viridians, 2-3 isolates/organism, read-out: MIC); 16 to 32 µg/mL (≈ 29.3 to 58.5 µM) in the assay with Staph. spidermidis (setting [4]); over 64 µg/mL with Entero. faecium (VRE) (Entero. faecium (VRE), 2-3 isolates/organism, read-out: MIC); 0.12 µg/mL (≈ 0.22 µM) with Strept. pyogenes (Strept. pyogenes, 2-3 isolates/organism, read-out: MIC); 16 to 32 µg/mL (≈ 29.3 to 58.5 µM) with Staph. spp. (coagulase−) (Staph. spp. (coagulase−), 2-3 isolates/organism, read-out: MIC); over 64 µg/mL in the assay with Entero. faecalis (Entero. faecalis, 2-3 isolates/organism, read-out: MIC).

On to `CC(=O)NC[C@H]1CN(c2ccc(N3CCOCC3)c(F)c2)C(=O)O1` [Linezolid], for which the MIC was over 16 µg/mL in the assay with Proteus vulgarisi (setting [2]), over 16 µg/mL with Klebsiella oxytoca (setting [3]) and 0.5 to 1 µg/mL (≈ 1.48 to 2.96 µM) in the assay on Staph. spidermidis (setting [4]).

With `CN[C@H](CC(C)C)C(=O)N[C@H]1C(=O)N[C@@H](CC(N)=O)C(=O)N[C@H]2C(=O)N[C@H]3C(=O)N[C@H](C(=O)N[C@H](C(=O)O)c4cc(O)cc(O)c4-c4cc3ccc4O)[C@H](O)c3ccc(c(Cl)c3)Oc3cc2cc(c3O[C@@H]2O[C@H](CO)[C@@H](O)[C@H](O)[C@H]2O[C@H]2C[C@](C)(N)[C@H](O)[C@H](C)O2)Oc2ccc(cc2Cl)[C@H]1O` [Vancomycin], the MIC in the assay with Proteus vulgarisi, in the assay with Escherichia coli, with Klebsiella oxytoca, against Citrobacter freundi (Citrobacter), with Proteus mirabilis and with Morganella morganii was over 128 µg/mL throughout. Besides, the MIC was over 128 µg/mL with Serratia marcescens; over 128 µg/mL in the assay with Klebsiella pneumoniae; over 128 µg/mL in the assay with Enterobacter cloacae; over 128 µg/mL in the assay on Citrobacter koseri; 32 to 128 µg/mL (≈ 22.1 to 88.3 µM) in assay [1]; 128 µg/mL (≈ 88.3 µM) against Haemophilus influenzae. Further, the MIC with Providencia stuartii was over 128 µg/mL; in the assay with Strept. pneumoniae it was 0.5 µg/mL (≈ 0.345 µM); against Staph. aureus (MRSA) (MRSA) it was 0.5 to 1 µg/mL (≈ 0.345 to 0.69 µM); against Strept. agalactiae, 0.5 µg/mL (≈ 0.345 µM); against Strept. viridians it was 0.5 to 1 µg/mL (≈ 0.345 to 0.69 µM); against Staph. spidermidis it was 2 µg/mL (≈ 1.38 µM). For the same compound, the MIC with Entero. faecium (VRE) (VRE) was over 128 µg/mL; in the assay with Strept. pyogenes, 0.5 µg/mL (≈ 0.345 µM); against Staph. saprophyticus it was 1 to 2 µg/mL (≈ 0.69 to 1.38 µM); against Staph. spp. (coagulase−), 1 to 2 µg/mL (≈ 0.69 to 1.38 µM); in the assay on Entero. faecalis, 1 µg/mL (≈ 0.69 µM).

As for `CC[C@H](C)[C@H](NC(=O)CN)C(=O)NCC(=O)N[C@@H](C)C(=O)N[C@H](C(=O)N[C@@H](CC(C)C)C(=O)N[C@@H](CCCCN)C(=O)N[C@H](C(=O)N[C@@H](CC(C)C)C(=O)N[C@H](C(=O)N[C@H](C(=O)NCC(=O)N[C@@H](CC(C)C)C(=O)N1CCC[C@H]1C(=O)N[C@@H](C)C(=O)N[C@@H](CC(C)C)C(=O)N[C@H](C(=O)N[C@@H](CO)C(=O)N[C@@H](Cc1c[nH]c2ccccc12)C(=O)N[C@H](C(=O)N[C@@H](CCCCN)C(=O)N[C@@H](CCCNC(=N)N)C(=O)N[C@@H](CCCCN)C(=O)N[C@@H](CCCNC(=N)N)C(=O)N[C@@H](CCC(N)=O)C(=O)N[C@@H](CCC(N)=O)C(N)=O)[C@@H](C)CC)[C@@H](C)CC)[C@@H](C)O)[C@@H](C)O)C(C)C)C(C)C` [melittin, reference compound], the “MIC or MIC90* S. aureus” value against S. aureus came to 2 µg/mL (≈ 0.703 µM).

In the case of `CCn1cc(C(=O)O)c(=O)c2cc(F)c(N3CCNCC3)cc21` [norfloxacin, reference compound], the “increase in MIC by passage 15” value was 64 fold with MRSA ATCC 33591 and 128 fold with MSSA ATCC 29213. Further, the “rise in MIC values by passage 3” value in the assay with MRSA ATCC 33591 and in the assay with MSSA ATCC 29213 was 4 doubling dilutions in each case.

The values are drawn from patent US8278309B2, “Synthetic mimetics of host defense and uses thereof” (priority 2008, dated 2012).
